The record followed here is ChEMBL document CHEMBL1123068, “2-Fluoroformycin and 2-aminoformycin. Synthesis and biological activity” (J Med Chem, 1985).

Each structure is given as a SMILES string.

This assay in a line: Ratio of kinetic parameters Vmax to the of Km.

For the molecule `Nc1nc(F)nc2c1ncn2[C@@H]1O[C@H](CO)[C@@H](O)[C@@H]1O`, the Ratio stood at 0.0096. Regarding `Nc1nc(N)c2ncn([C@@H]3O[C@H](CO)[C@@H](O)[C@H]3O)c2n1`, the Ratio amounted to 3.6. Take `Nc1ncnc2c1ncn2[C@@H]1O[C@H](CO)[C@@H](O)[C@H]1O`: the Ratio worked out at 15.
